Data taken from ChEMBL document CHEMBL1201862, “PubChem BioAssay data set” (2004).
The source made the active and inactive calls.

How the values were obtained:
[1] = target: Voltage-dependent T-type calcium channel subunit alpha-1H (Homo sapiens, UniProt O95180); type: functional;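 note: channel activity triggered by adding a high calcium stimulation buffer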
INS1 = assay: INS-1E survival protection against cytokine death – cell-based, luminescence, retest, dose response (AID 449756); type: functional; conditions: Rattus norvegicus;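 note: cell death triggered by IL-1 beta plus TNF-alpha plus IFN-gamma mixture; protective hits raise ATP signal compared with cytokine alone wells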
[2] = target: T1, Luciferin 4-monooxygenase (Photinus pyralis, UniProt P08659); assay: inhibition of purified Photinus pyralis luciferase – biochemical, luminescence, dose response (AID 1891)
[3] = target: T1, Luciferin 4-monooxygenase; assay: Counter Screen for Luciferase-based Assay Positives. [Related pubchem assays: 620, 618, 411 ]
[4] = Luminescence-based cell-based high throughput dose response assay to identify activators of the DAF-12 from the parasite S. stercoralis (ssDAF-12).; type: functional
HT-1080 = assay: HT1080 cell viability loss – fluorescence readout (AID 620); type: functional, cell-based; conditions: Homo sapiens
[5] = Luminescence Cell-Based Dose Confirmation HTS to Identify Inhibitors of Platelet Dense Granule Release. [Related pubchem assays: 1663 (Primary HTS), 1678 (Summary of Project)]; type: functional
Prothrombin = Prothrombin (Homo sapiens, UniProt P00734); assay: Thrombin 1536 HTS Dose Response Confirmation. [Related pubchem assays: 1046 (Thrombin 1536 HTS; hits were confirmed in this assay)]; type: functional
[6] = target: T2, Alkaline phosphatase, tissue-nonspecific isozyme (Homo sapiens, UniProt P05186); assay: potency against alkaline phosphatase TNAP – biochemical, luminescent, dose response, SAR follow-up (AID 1056)
T2 sequence (P05186 whole entry): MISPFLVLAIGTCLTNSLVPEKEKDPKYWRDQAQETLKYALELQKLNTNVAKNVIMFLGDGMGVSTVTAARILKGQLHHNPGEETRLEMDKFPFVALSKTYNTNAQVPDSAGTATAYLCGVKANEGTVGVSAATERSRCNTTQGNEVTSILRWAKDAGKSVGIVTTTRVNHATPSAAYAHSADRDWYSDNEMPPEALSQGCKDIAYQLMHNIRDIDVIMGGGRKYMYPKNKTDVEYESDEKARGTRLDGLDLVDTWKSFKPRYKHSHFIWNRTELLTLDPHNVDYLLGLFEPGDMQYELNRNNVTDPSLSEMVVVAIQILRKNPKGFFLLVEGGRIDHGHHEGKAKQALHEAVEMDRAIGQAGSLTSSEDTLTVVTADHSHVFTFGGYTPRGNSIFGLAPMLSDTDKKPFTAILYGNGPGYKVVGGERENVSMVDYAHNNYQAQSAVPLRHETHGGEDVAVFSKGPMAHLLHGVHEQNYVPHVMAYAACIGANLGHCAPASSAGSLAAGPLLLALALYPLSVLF

[7] = target: Glyceraldehyde-3-phosphate dehydrogenase (Homo sapiens, UniProt P04406)
[8] = HEK-293T cell viability reduction – luminescence, B-cell screen hits, cytotoxicity control for BCR NF-kB inhibitor project, dose response (AID 489021); type: functional, cell-based;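 note: HEK-293T cells carrying an NF-kB luciferase reporter; cells exposed to compound for about 14 hours before viability readout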
[9] = viability of uninfected HEp-2 cells – cell-based, HTS, cytotoxicity control for RSV inhibitor project, dose response (AID 2410); type: functional; conditions: human respiratory syncytial virus
Coagulation factor XII = target: T3, Coagulation factor XII (Homo sapiens, UniProt P00748); type: functional;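 note: activated factor XIIa alpha cleaving a fluorogenic AMC peptide substrate; inhibitor potency from loss of enzyme activity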
T3 sequence (P00748 whole entry): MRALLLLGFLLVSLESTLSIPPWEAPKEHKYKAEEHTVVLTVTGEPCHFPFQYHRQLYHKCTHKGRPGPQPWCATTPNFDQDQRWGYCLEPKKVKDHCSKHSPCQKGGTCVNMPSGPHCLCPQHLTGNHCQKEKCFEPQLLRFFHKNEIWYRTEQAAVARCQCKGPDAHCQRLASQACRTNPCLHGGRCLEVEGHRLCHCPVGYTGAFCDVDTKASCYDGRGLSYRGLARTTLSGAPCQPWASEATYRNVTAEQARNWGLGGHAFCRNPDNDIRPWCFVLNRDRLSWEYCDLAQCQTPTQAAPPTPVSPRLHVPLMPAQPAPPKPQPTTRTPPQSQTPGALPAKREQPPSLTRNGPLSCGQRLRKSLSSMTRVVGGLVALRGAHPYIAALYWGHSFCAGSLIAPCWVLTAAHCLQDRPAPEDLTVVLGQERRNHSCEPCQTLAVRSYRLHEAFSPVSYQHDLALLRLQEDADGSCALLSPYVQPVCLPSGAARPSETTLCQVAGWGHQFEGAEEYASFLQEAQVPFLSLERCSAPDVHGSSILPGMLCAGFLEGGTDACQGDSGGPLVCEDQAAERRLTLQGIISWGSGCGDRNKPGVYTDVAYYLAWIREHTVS

[10] = HepG2 cell cytotoxicity, dose response, cytotoxicity control for non-replicating M. tuberculosis project (AID 489018); type: functional; conditions: Mycobacterium tuberculosis
[11] = Trypanosoma cruzi growth suppression in host cells – NIH3T3 host cells, beta-gal luminescence, confirmation (AID 2044); type: functional, cell-based;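 note: intracellular parasites grown in NIH/3T3 mouse fibroblasts as host cells; luminescent beta-galactosidase reporter signal from transgenic T. cruzi replicating inside host cells; inhibitors lower the luminescence signal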
[12] = NIH3T3 cell viability loss – ATP luminescence, mouse fibroblasts, counter-screen, dose response (AID 2010); type: functional, cell-based;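 note: cells exposed to compound for about 90 hours before reading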
[13] = THP-1 cell cytotoxicity, dose response, cytotoxicity control for non-replicating M. tuberculosis project (AID 489025); type: functional
[14] = Vero E6 cell cytotoxicity, dose response, cytotoxicity control for non-replicating M. tuberculosis project, secondary assay (AID 492998); type: functional, VeroE6; conditions: Vero C1008

T1 sequence (P08659 whole entry): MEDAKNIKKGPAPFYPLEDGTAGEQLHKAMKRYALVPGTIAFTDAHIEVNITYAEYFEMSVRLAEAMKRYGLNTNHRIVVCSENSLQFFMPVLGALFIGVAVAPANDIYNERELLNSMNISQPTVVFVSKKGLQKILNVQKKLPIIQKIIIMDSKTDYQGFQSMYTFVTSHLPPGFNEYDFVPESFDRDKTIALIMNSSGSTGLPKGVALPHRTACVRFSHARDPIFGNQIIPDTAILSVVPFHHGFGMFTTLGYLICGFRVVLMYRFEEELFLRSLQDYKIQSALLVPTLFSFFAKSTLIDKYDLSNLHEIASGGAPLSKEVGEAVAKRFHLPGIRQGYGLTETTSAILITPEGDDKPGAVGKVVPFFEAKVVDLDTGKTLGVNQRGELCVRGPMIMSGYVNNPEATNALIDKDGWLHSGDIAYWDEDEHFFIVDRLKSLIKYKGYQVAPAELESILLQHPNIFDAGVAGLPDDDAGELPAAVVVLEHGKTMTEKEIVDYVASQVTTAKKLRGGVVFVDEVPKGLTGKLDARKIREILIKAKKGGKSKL
Sequence of Voltage-dependent T-type calcium channel subunit alpha-1H (O95180 whole entry): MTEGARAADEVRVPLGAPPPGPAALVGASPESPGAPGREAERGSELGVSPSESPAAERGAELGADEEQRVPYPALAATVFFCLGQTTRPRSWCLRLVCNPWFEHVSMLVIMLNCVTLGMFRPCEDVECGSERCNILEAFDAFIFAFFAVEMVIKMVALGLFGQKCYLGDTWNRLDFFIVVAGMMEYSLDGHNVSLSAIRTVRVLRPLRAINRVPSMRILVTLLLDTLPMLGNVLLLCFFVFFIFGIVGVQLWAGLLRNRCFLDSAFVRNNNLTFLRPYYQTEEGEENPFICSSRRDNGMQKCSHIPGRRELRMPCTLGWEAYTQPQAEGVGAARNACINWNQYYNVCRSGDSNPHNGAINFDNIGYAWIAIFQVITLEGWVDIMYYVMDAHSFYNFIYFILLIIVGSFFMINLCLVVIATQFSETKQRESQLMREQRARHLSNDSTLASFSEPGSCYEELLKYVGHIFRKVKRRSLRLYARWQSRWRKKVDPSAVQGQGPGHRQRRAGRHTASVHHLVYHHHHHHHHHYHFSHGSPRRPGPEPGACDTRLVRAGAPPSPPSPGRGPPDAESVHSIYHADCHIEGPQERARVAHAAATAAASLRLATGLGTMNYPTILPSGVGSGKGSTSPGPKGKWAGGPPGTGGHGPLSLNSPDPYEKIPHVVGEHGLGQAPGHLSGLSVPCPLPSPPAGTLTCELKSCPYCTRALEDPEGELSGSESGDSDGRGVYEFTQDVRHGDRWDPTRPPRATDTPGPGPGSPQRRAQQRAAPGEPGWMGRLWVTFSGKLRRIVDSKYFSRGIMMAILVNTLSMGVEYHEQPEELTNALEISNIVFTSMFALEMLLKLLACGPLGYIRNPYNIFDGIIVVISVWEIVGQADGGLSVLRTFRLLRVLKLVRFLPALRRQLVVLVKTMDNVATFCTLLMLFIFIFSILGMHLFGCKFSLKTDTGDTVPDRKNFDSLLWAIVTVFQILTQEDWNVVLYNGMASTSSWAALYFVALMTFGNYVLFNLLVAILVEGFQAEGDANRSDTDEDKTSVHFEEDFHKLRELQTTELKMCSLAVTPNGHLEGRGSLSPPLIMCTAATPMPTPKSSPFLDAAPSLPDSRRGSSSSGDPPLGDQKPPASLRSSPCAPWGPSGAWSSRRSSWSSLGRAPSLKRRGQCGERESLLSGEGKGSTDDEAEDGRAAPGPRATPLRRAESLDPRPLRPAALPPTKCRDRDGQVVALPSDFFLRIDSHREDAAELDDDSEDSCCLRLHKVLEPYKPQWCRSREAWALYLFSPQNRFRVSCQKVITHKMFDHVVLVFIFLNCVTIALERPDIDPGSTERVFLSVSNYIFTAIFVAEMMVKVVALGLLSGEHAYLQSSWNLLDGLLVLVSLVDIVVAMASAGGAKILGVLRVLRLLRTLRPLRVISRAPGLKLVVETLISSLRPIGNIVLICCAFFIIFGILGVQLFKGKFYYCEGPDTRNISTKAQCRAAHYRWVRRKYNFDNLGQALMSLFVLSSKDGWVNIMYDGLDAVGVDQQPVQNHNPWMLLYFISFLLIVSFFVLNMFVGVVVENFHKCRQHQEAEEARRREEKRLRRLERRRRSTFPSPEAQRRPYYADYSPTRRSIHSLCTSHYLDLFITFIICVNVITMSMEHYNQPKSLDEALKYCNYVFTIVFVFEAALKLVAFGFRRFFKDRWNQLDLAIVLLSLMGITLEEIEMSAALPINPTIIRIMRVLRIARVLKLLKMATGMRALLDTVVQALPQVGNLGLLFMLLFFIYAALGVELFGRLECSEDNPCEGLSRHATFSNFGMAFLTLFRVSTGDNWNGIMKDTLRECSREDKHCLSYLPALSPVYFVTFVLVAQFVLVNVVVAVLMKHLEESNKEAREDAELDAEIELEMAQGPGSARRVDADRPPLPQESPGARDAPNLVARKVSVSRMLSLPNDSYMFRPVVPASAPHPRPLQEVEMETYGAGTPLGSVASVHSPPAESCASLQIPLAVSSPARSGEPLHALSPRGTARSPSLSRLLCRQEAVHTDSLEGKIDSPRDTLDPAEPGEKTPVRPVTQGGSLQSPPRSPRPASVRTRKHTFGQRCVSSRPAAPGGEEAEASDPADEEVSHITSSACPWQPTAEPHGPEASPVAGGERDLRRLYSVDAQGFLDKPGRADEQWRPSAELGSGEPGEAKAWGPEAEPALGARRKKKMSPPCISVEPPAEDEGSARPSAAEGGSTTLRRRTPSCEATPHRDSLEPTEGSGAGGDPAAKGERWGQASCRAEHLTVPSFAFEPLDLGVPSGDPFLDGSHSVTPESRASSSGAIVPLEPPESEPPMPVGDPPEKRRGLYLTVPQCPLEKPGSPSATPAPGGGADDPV
Sequence of Glyceraldehyde-3-phosphate dehydrogenase (P04406 whole entry): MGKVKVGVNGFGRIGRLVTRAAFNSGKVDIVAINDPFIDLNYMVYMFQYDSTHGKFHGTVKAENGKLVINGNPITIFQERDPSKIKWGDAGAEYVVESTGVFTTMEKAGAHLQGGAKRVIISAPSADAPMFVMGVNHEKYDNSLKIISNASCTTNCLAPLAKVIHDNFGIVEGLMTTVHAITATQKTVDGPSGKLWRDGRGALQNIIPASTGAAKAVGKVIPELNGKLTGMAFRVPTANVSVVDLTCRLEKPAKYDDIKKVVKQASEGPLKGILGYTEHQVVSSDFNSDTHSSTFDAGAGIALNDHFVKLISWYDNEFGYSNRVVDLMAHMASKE

Compound: O=C(Nc1ccc(OCC(=O)N2CCC(Cc3ccccc3)CC2)cc1)c1ccco1
- EC50 [1]: 2.36 µM (active)
- AC50 (INS1): 5.93 µM (active)

Compound: Oc1cccc(-c2nc3ccccc3s2)c1
- EC50 [2]: 1.83 µM (active)
- EC50 [3]: 12.4 µM (active)
- IC50 [4]: > 67.6 µM (inactive)
- EC50 (HT-1080): > 50 µM (not active)
- EC50 [5]: 22.2 µM (active)
- IC50 (Prothrombin): > 50 µM (not active)

Compound: Nc1ccc(-c2cc(C(=O)O)n[nH]2)cc1
- IC50 [6]: 8.69 µM (active)
- IC50 [7]: > 100 µM (not active)

Compound: CCCCCCn1c(-c2ccco2)nc2oc3cc(OC)ccc3c(=O)c2c1=O
- IC50 [8]: > 80 µM (inactive)

Compound: CN1CCN(c2ncnc3c2cnn3-c2ccc(Cl)cc2)CC1
- EC50 [3]: 0.55 µM (active)
- EC50 (HT-1080): > 50 µM (not active)

Compound: O=C(Nc1ccc(C(F)(F)F)cc1[N+](=O)[O-])O[C@H]1[C@H](Cc2ccccc2)NS(=O)(=O)[C@H]2C[C@@H]3C=C[C@]12O3
- IC50 (cells): 24.6 µM (active)
- CC50 [9]: 23 µM (active)

Compound: CS(=O)(=O)N(CC(=O)N/N=C/c1ccccc1C(=O)O)c1cccc(Cl)c1Cl
- IC50 (Coagulation factor XII): > 50 µM (inactive)

Compound: C/C(=N\NC(=O)c1ccc(CN2CCc3ccccc3C2)cc1)c1ccccc1O
- CC50 [10]: 10.7 µM (active)
- EC50 [11]: 1.06 µM (active)
- EC50 [12]: 3.88 µM (active)
- CC50 [13]: 15.3 µM (active)
- CC50 [14]: 13.9 µM (active)

Compound: O=C(/C=C\Nc1ccccn1)c1ccc(Cl)cc1
- EC50 [3]: 2.45 µM (active)
- EC50 (HT-1080): > 50 µM (not active)
